Measured values: ChEMBL document CHEMBL1201862, “PubChem BioAssay data set” (2004)
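These data come from cells grown in 96-well plates and exposed to compound for 48 hours at five concentrations. The concentration for 50% growth inhibition is given as GI50.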 Activity calls are given as the source filed them. Rule as the data show it: active = GI50 up to about 1.1 µM and inactive = higher.

Experiments:
Test in all cases: inhibition of tumour cell growth, NCI panel, 48 h
SK-MEL-2 = tested on: SK-MEL-2
SF-268 = tested on: SF-268
UACC-62 = tested on: UACC-62
HCC 2998 = tested on: HCC 2998
K562 = tested on: K562
RXF 393 = tested on: RXF 393
CCRF-CEM = tested on: CCRF-CEM
SW-620 = tested on: SW-620
SK-OV-3 = tested on: SK-OV-3
UACC-257 = tested on: UACC-257
NCI-H23 = tested on: NCI-H23
Hs-578T = tested on: Hs-578T
MDA-MB-435 = tested on: MDA-MB-435
LOX IMVI = tested on: LOX IMVI
IGROV-1 = tested on: IGROV-1
HCT-15 = tested on: HCT-15
NCI-H226 = tested on: NCI-H226
PC-3 = tested on: PC-3
KM12 = tested on: KM12
SK-MEL-28 = tested on: SK-MEL-28
OVCAR-4 = tested on: OVCAR-4
MCF7 = tested on: MCF7
HT-29 = tested on: HT-29
U-251 = tested on: U-251
OVCAR-5 = tested on: OVCAR-5
COLO 205 = tested on: COLO 205
MDA-N = tested on: MDA-N
HL-60 = tested on: HL-60
TK-10 = tested on: TK-10
T47D = tested on: T47D
M14 = tested on: M14
SN12C = tested on: SN12C
ACHN = tested on: ACHN
CAKI-1 = tested on: CAKI-1
HCT-116 = tested on: HCT-116
A549 = tested on: A549
DU-145 = tested on: DU-145
A498 = tested on: A498
SNB-75 = tested on: SNB-75
MOLT-4 = tested on: MOLT-4
NCI-H460 = tested on: NCI-H460
OVCAR-8 = tested on: OVCAR-8
NCI/ADR-RES = tested on: NCI/ADR-RES
SK-MEL-5 = tested on: SK-MEL-5
UO-31 = tested on: UO-31
HOP-92 = tested on: HOP-92
786-0 = tested on: 786-0
MDA-MB-231 = tested on: MDA-MB-231
Malme-3M = tested on: Malme-3M
EKVX = tested on: EKVX
BT-549 = tested on: BT-549
SNB-19 = tested on: SNB-19
RPMI-8226 = tested on: RPMI-8226
SR = tested on: SR
HOP-62 = tested on: HOP-62
SF-295 = tested on: SF-295
OVCAR-3 = tested on: OVCAR-3
NCI-H522 = tested on: NCI-H522
SF-539 = tested on: SF-539

Q: Which results are given for `CC[S+]1C2=C(CC(C)(C)CC2=O)[N-]c2ccccc21` (stereo not given)?
A: GI50 (SK-MEL-2): > 100 µM (inactive); GI50 (SF-268): > 100 µM (inactive); GI50 (UACC-62): > 100 µM (inactive); GI50 (HCC 2998): > 100 µM (inactive); GI50 (K562): > 100 µM (inactive); GI50 (RXF 393): > 100 µM (inactive); GI50 (CCRF-CEM): > 100 µM (inactive); GI50 (SW-620): > 100 µM (inactive); GI50 (SK-OV-3): > 100 µM (inactive); GI50 (UACC-257): > 100 µM (inactive); GI50 (NCI-H23): > 100 µM (inactive); GI50 (Hs-578T): 78.3 µM (inactive); GI50 (MDA-MB-435): > 100 µM (inactive); GI50 (LOX IMVI): > 100 µM (inactive); GI50 (IGROV-1): > 100 µM (inactive); GI50 (HCT-15): > 100 µM; GI50 (NCI-H226): > 100 µM (inactive); GI50 (PC-3): > 100 µM (inactive); GI50 (KM12): > 100 µM (inactive); GI50 (SK-MEL-28): > 100 µM (inactive); GI50 (OVCAR-4): > 100 µM (inactive); GI50 (MCF7): 24.4 µM (inactive); GI50 (HT-29): > 100 µM (inactive); GI50 (U-251): > 100 µM (inactive); GI50 (OVCAR-5): > 100 µM (inactive); GI50 (COLO 205): > 100 µM (inactive); GI50 (MDA-N): > 100 µM (inactive); GI50 (HL-60): > 100 µM (inactive); GI50 (TK-10): > 100 µM (inactive); GI50 (T47D): > 100 µM (inactive); GI50 (M14): > 100 µM (inactive); GI50 (SN12C): > 100 µM (inactive); GI50 (ACHN): > 100 µM (inactive); GI50 (CAKI-1): > 100 µM (inactive); GI50 (HCT-116): > 100 µM (inactive); GI50 (A549): > 100 µM (inactive); GI50 (DU-145): > 100 µM (inactive); GI50 (A498): > 100 µM (inactive); GI50 (SNB-75): > 100 µM (inactive); GI50 (MOLT-4): > 100 µM (inactive); GI50 (NCI-H460): > 100 µM (inactive); GI50 (OVCAR-8): > 100 µM (inactive); GI50 (NCI/ADR-RES): > 100 µM (inactive); GI50 (SK-MEL-5): > 100 µM (inactive); GI50 (UO-31): > 100 µM (inactive); GI50 (HOP-92): > 100 µM (inactive); GI50 (786-0): > 100 µM (inactive); GI50 (MDA-MB-231): > 100 µM (inactive); GI50 (Malme-3M): > 100 µM (inactive); GI50 (EKVX): > 100 µM (inactive); GI50 (BT-549): > 100 µM (inactive); GI50 (SNB-19): > 100 µM (inactive); GI50 (RPMI-8226): > 100 µM (inactive); GI50 (SR): > 100 µM (inactive); GI50 (HOP-62): > 100 µM (inactive); GI50 (SF-295): 31.6 µM (inactive); GI50 (OVCAR-3): > 100 µM (inactive); GI50 (NCI-H522): > 100 µM (inactive)

Q: How did the GI50 (SK-MEL-2) turn out when `COc1ccc(OC)c2sc(N3C(=O)/C(=C/c4cccc([N+](=O)[O-])c4)N=C3c3ccccc3)nc12` was run?
A: 69 µM (inactive)

Q: What about the GI50 (SF-268) of the same molecule?
A: 57.5 µM (inactive)

Q: What about the GI50 (UACC-62) of the same molecule?
A: 36.4 µM (inactive)

Q: And the GI50 (HCC 2998)?
A: 45.5 µM (inactive)

Q: And the GI50 (K562)?
A: 23.3 µM (inactive)

Q: What about the GI50 (RXF 393) of the same molecule?
A: 55.1 µM (inactive)

Q: What about the GI50 (CCRF-CEM) of the same molecule?
A: 24.9 µM (inactive)

Q: And the GI50 (SW-620)?
A: 23.7 µM (inactive)

Q: And the GI50 (SK-OV-3)?
A: 50.6 µM (inactive)

Q: And the GI50 (UACC-257)?
A: 38.3 µM (inactive)

Q: And the GI50 (NCI-H23)?
A: 86.7 µM (inactive)

Q: And the GI50 (Hs-578T)?
A: 51.9 µM (inactive)

Q: What about the GI50 (MDA-MB-435) of the same molecule?
A: 23.9 µM (inactive)

Q: And the GI50 (LOX IMVI)?
A: 23.1 µM (inactive)

Q: What about the GI50 (IGROV-1) of the same molecule?
A: 43.4 µM (inactive)

Q: And the GI50 (HCT-15)?
A: 61.5 µM

Q: What about the GI50 (PC-3) of the same molecule?
A: 59.7 µM (inactive)

Q: And the GI50 (KM12)?
A: 42.2 µM (inactive)

Q: And the GI50 (SK-MEL-28)?
A: 76 µM (inactive)

Q: What about the GI50 (MCF7) of the same molecule?
A: 21.2 µM (inactive)

Q: What about the GI50 (HT-29) of the same molecule?
A: > 100 µM (inactive)

Q: What about the GI50 (U-251) of the same molecule?
A: 32 µM (inactive)

Q: And the GI50 (OVCAR-5)?
A: > 100 µM (inactive)

Q: And the GI50 (COLO 205)?
A: > 100 µM (inactive)

Q: And the GI50 (MDA-N)?
A: 32.4 µM (inactive)

Q: And the GI50 (HL-60)?
A: 20.8 µM (inactive)

Q: What about the GI50 (TK-10) of the same molecule?
A: 74 µM (inactive)

Q: And the GI50 (T47D)?
A: 22.3 µM (inactive)

Q: And the GI50 (M14)?
A: > 100 µM (inactive)

Q: What about the GI50 (SN12C) of the same molecule?
A: > 100 µM (inactive)

Q: And the GI50 (ACHN)?
A: 99.8 µM (inactive)

Q: And the GI50 (CAKI-1)?
A: > 100 µM (inactive)

Q: What about the GI50 (HCT-116) of the same molecule?
A: > 100 µM (inactive)

Q: And the GI50 (A549)?
A: 47.1 µM (inactive)

Q: What about the GI50 (SF-539) of the same molecule?
A: 41.1 µM (inactive)

Q: What about the GI50 (DU-145) of the same molecule?
A: 68.4 µM (inactive)

Q: And the GI50 (A498)?
A: 57.8 µM (inactive)

Q: And the GI50 (SNB-75)?
A: 42.7 µM (inactive)

Q: And the GI50 (MOLT-4)?
A: 21.8 µM (inactive)

Q: What about the GI50 (NCI-H460) of the same molecule?
A: 77.1 µM (inactive)

Q: What about the GI50 (OVCAR-8) of the same molecule?
A: 28.5 µM (inactive)

Q: What about the GI50 (NCI/ADR-RES) of the same molecule?
A: 56 µM (inactive)

Q: And the GI50 (SK-MEL-5)?
A: 49.4 µM (inactive)

Q: What about the GI50 (UO-31) of the same molecule?
A: > 100 µM (inactive)

Q: What about the GI50 (HOP-92) of the same molecule?
A: 94.2 µM (inactive)

Q: And the GI50 (786-0)?
A: 49.7 µM (inactive)

Q: What about the GI50 (MDA-MB-231) of the same molecule?
A: > 100 µM (inactive)

Q: What about the GI50 (Malme-3M) of the same molecule?
A: > 100 µM (inactive)

Q: And the GI50 (EKVX)?
A: > 100 µM (inactive)

Q: What about the GI50 (BT-549) of the same molecule?
A: 48.5 µM (inactive)

Q: What about the GI50 (SNB-19) of the same molecule?
A: > 100 µM (inactive)

Q: What about the GI50 (RPMI-8226) of the same molecule?
A: 22.5 µM (inactive)

Q: And the GI50 (SR)?
A: 23.7 µM (inactive)

Q: And the GI50 (HOP-62)?
A: 54.1 µM (inactive)

Q: And the GI50 (SF-295)?
A: 51.8 µM (inactive)

Q: And the GI50 (OVCAR-3)?
A: 35.6 µM (inactive)

Q: What about the GI50 (NCI-H522) of the same molecule?
A: 42.6 µM (inactive)
